Counter-ions that a name gives are not always drawn. Like-named read-outs stand apart in the source and are kept apart here.
Key:
[1] = system: Mycobacterium smegmatis (Msm) strain ATCC 607; assay: Two-dimensional checkerboard assay incorporating resazurin (REMA MIC) against Msm; format: cell-based; conditions: for MIC / MIC99: compound tested singly, read-out: MIC 99 singly; for MIC 99 fold reduction of anti-TB drug BDQ: BDQ in combination with the labelled EI; for MIC 99 fold reduction of anti-TB drug DOX: DOX in combination with the labelled EI; for FICI: synergy FICI ≤ 0.5; for MIC 99 fold reduction of anti-TB drug CFZ: CFZ in combination with the labelled EI
[2] = MTT cytotoxicity assay on Vero E6 cells; format: cell-based, African green monkey; conditions: African green monkey
Procedure: (§1) To determine the cytotoxicity of the compounds, Vero E6 cells (derived from the African green monkey kidney cells) were used and the MTT assay was performed as described by [Mosmann (1983)]. The Vero E6 cells were sourced from the American Type Culture Collection (ATCC, Manassas, Virginia, USA). The cells were maintained in Eagle’s Minimum Essential Medium (EMEM) supplemented with 10% fetal bovine serum (FBS; […] Panasonic, Japan) until 80% confluency was achieved, after which they were sub-cultured for cytotoxicity evaluation. At 80% confluency, cells were washed with phosphate-buffered saline (PBS; […] Trypsin activity was neutralized by adding supplemented EMEM. Cells were stained with trypan blue (Loba Chemie, India) and counted using a hemocytometer, and the cell suspensions were adjusted with supplemented EMEM to a final density of 1 × 10 ^5 cells/mL. […] After 24 hrs, the culture medium was replaced with fresh treatment medium with dose dilutions. […] After 48 hrs incubation, the media was removed, and the cells were rinsed with PBS (Sigma-Aldrich, USA). Fresh EMEM supplemented with MTT dye (5 mg […]/mL in PBS; Solarbio, China) was added and incubated for 4 hrs. The MTT solution was then discarded, and formazan crystals were completely dissolved with 100 μL of 100% DMSO (Finar Chemicals, India). Absorbance readings were taken at 570 nm using a microplate reader (Thermo Fisher Scientific, USA). All experiments were performed with three technical replicates. Cell viability (%) was determined using the formula: Cell viability(%)=[Absorbance of treated cells/Absorbance of untreated cells]×100 […]

[3] = system: Vero E6 cells; assay: MTT cytotoxicity assay on Vero E6 cells; format: cell-based, African green monkey
Procedure: as §1

[4] = Mycolicibacterium smegmatis, ATCC607, Msm
[5] = Msm, labelled EI in combination with BDQ
[6] = Msm, labelled EI in combination with CFZ
[7] = Msm, labelled EI in combination with DOX
[8] = Vero E6 cells, 48 hrs exposure, MTT, read-out: CC 50

SMILES | FIC (anti-TB drug) ([1]; Msm, in combination with BER) | MIC 99 combination (anti-TB drug) ([1]; Msm, in combination with BER) [µM] | MIC 99 combination (anti-TB drug) ([1]; Msm, in combination with LYO) [µM] | FIC (anti-TB drug) ([1]; Msm, in combination with LYO-3) | MIC 99 combination (anti-TB drug) ([1]; Msm, in combination with LYO-3) [µM] | FIC (anti-TB drug) ([1]; Msm, in combination with PIP) | MIC 99 combination (anti-TB drug) ([1]; Msm, in combination with PIP) [µM] | FIC (anti-TB drug) ([1]; Msm, in combination with RES) | MIC 99 combination (anti-TB drug) ([1]; Msm, in combination with RES) [µM] | MIC99 [1, 4] [µM] | MIC 99 fold reduction of anti-TB drug BDQ ([1]; Msm) [fold] | MIC 99 fold reduction of anti-TB drug DOX ([1]; Msm) [fold] | FIC (EI) ([1]; Msm, in combination with BDQ) | MIC 99 combination (EI) ([1]; Msm, in combination with BDQ) [µM] | MIC 99 combination (EI) ([1]; Msm, in combination with CFZ) [µM] | MIC 99 combination (EI) ([1]; Msm, in combination with DOX) [µM] | FICI [1, 5] | FICI [1, 6] | FICI [1, 7] | CC50 at 48 h [2, 8] [µM] | other results
COc1nc2ccc(Br)cc2cc1[C@@H](c1ccccc1)[C@@](O)(CCN(C)C)c1cccc2ccccc12 [BDQ, bedaquiline fumarate] | 0.102 | 0.04 | 0.09 | 0.05 | 0.04 | 1 | 0.78 | 0.5 | 0.39 | 0.78 | – | – | – | – | – | – | – | – | – | – | MIC ([1]; Msm): 0.39 µM
COc1ccc2cc3[n+](cc2c1OC)CCc1cc2c(cc1-3)OCO2 [BER, Berberine chloride] | – | – | – | – | – | – | – | – | – | 110 | 10 | 16 | 0.125 | 27.62 | 53.99 | 53.99 | 0.23 | 2 | 0.31 | – | CC50 at 48 h [2]: 362 µM; MIC [1, 4]: 221 µM
CC(C)/N=c1\cc2n(-c3ccc(Cl)cc3)c3ccccc3nc-2cc1Nc1ccc(Cl)cc1 [CFZ, clofazimine] | 1 | 0.08 | 0.08 | 1 | 0.08 | 0.12 | 0.01 | 0.25 | 0.02 | 0.08 | – | – | – | – | – | – | – | – | – | – | FIC (anti-TB drug) ([1]; Msm, in combination with LYO): 1
C[C@H]1c2cccc(O)c2C(=O)C2=C(O)[C@]3(O)C(=O)C(C(N)=O)=C(O)[C@@H](N(C)C)[C@@H]3[C@@H](O)[C@@H]21 [DOX, doxycycline hyclate] | 0.063 | 2.25 | 2.25 | 0.063 | 2.25 | 0.063 | 2.25 | 0.031 | 1.12 | 36 | – | – | – | – | – | – | – | – | – | – | FIC (anti-TB drug) ([1]; Msm, in combination with LYO): 0.063
COc1cc(C2c3c(cc(OC)c(O)c3OC)CC(CO)C2CO)cc(OC)c1O (centres unmarked) [LYO, lyoniresinol] | – | – | – | – | – | – | – | – | – | 200 | 8 | 16 | 0.125 | 25 | 200 | 25 | 0.18 | 2 | 0.19 | 318 | FIC (EI) ([1]; Msm, in combination with CFZ): 1; FIC (EI) ([1]; Msm, in combination with DOX): 0.125
COc1cc([C@H]2c3c(cc(OC)c(O)c3OC)C[C@@H](CO)[C@@H]2CO[C@@H]2O[C@H](CO)[C@@H](O)[C@H](O)[C@H]2O)cc(OC)c1O [LYO-3, (+)-lyoniresinol-3-Alpha-O-Beta-D-glucopyranoside] | – | – | – | – | – | – | – | – | – | 100 | 20 | 16 | 0.25 | 24.99 | 99.99 | 25 | 0.3 | 2 | 0.21 | 604 | viability at 48 h ([2]; Vero E6 cells, even at higher concentrations, read-out: Cell viability): > 50%; FIC (EI) ([1]; Msm, in combination with CFZ): 1; FIC (EI) ([1]; Msm, in combination with DOX): 0.25
O=C(/C=C/C=C/c1ccc2c(c1)OCO2)N1CCCCC1 [PIP, piperine] | – | – | – | – | – | – | – | – | – | 120 | – | 16 | 1 | 119.99 | 29.99 | 29.99 | 2 | 0.37 | – | 92.5 | MIC 99 fold reduction of anti-TB drug CFZ ([1]; Msm): 8 fold; FIC (EI) ([1]; Msm, in combination with CFZ): 0.25; FIC (EI) ([1]; Msm, in combination with DOX): 0.25
COC(=O)[C@H]1[C@H]2C[C@@H]3c4[nH]c5cc(OC)ccc5c4CCN3C[C@H]2C[C@@H](OC(=O)c2cc(OC)c(OC)c(OC)c2)[C@@H]1OC [RES, reserpine] | – | – | – | – | – | – | – | – | – | > 2240 | 2 | 32 | – | >2239.3 | >2239.3 | – | – | – | – | – | Cytotoxicity (in words) [3]: strong cytotoxicity at low micromolar concentrations; MIC 99 fold reduction of anti-TB drug CFZ ([1]; Msm): 4 fold; MIC [1, 4]: > 2240 µM

Source: paper PMC13077286, “Potentiation of the antimycobacterial activity of bedaquiline, clofazimine, and doxycycline against Mycobacterium smegmatis by several natural product-based compounds is putatively via efflux inhibition” (Open Research Africa, 2026)
